Columns and labels:
Experiment in all cases: competitive isoTOP-ABPP
Format in all cases: binding
[1] = target: T1, EIF5A2 Eukaryotic translation initiation factor 5A-2 (Homo sapiens, UniProt Q9GZV4); settings: 50 uM, in vitro
T1 construct: isoTOP-ABPP experiments performed in cell lysates (in vitro); endogenous in cells; host or cells: soluble proteome of human cancer cell lines (MDA-MB-231; Ramos and Jurkat also prepared)
Summary of the method: (§1)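 Fragments at 50 μM (activated esters) or 100 μM (guanidinylating agents) were incubated with 0.5 ml lysate before probe labeling. After 0.1 mM STP-alkyne for 1 h, samples were clicked to isotopically distinct TEV tags, and R taken as DMSO-over-compound MS1 peak-area ratio.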

[2] = target: T2, ACIN1 Apoptotic chromatin condensation inducer in the nucleus (Homo sapiens, UniProt Q9UKV3); settings: 50 uM_231_sol_in vitro
T2 construct: endogenous in cells; host or cells: MDA-MB-231 lysate
T2 sequence (Q9UKV3 whole entry): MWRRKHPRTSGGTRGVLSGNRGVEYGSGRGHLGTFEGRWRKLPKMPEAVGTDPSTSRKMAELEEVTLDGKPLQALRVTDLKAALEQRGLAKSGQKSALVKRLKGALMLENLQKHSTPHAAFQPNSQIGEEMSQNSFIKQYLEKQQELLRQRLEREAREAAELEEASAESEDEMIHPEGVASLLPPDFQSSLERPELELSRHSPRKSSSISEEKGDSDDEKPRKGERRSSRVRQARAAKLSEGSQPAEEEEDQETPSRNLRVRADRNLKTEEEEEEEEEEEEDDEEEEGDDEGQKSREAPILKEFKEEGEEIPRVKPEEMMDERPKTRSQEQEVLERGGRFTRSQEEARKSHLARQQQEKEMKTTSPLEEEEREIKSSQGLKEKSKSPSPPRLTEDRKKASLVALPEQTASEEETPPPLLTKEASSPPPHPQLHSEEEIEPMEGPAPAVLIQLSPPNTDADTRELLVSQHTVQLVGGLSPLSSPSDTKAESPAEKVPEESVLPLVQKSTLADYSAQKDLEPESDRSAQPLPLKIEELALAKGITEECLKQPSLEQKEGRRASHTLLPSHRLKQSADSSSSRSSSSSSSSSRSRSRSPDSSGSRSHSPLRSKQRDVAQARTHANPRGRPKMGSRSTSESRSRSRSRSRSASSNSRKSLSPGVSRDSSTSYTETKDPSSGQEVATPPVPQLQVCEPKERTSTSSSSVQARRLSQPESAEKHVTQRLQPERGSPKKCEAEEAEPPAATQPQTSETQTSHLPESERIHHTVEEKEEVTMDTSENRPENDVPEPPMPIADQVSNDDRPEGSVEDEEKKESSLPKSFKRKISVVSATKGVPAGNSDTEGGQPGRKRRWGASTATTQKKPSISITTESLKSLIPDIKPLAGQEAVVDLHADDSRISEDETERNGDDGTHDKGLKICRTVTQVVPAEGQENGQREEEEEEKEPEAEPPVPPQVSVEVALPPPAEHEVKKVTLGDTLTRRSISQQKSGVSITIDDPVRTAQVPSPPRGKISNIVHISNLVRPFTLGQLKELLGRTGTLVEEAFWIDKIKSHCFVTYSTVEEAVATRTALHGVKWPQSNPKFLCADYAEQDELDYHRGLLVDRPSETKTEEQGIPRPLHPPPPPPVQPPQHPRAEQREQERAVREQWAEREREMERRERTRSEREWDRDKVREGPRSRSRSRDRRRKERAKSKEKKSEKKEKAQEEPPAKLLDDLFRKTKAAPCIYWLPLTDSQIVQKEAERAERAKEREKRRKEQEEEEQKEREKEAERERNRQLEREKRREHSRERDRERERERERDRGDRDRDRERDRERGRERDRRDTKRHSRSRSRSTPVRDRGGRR
Summary of the method: as §1

CCNA2 Cyclin-A2 = target: T3, CCNA2 Cyclin-A2 (Homo sapiens, UniProt P20248); settings: 50 uM, in vitro
T3 construct: isoTOP-ABPP experiments performed in cell lysates (in vitro); endogenous in cells; host or cells: soluble proteome of human cancer cell lines (MDA-MB-231; Ramos and Jurkat also prepared)
T3 sequence (P20248 whole entry): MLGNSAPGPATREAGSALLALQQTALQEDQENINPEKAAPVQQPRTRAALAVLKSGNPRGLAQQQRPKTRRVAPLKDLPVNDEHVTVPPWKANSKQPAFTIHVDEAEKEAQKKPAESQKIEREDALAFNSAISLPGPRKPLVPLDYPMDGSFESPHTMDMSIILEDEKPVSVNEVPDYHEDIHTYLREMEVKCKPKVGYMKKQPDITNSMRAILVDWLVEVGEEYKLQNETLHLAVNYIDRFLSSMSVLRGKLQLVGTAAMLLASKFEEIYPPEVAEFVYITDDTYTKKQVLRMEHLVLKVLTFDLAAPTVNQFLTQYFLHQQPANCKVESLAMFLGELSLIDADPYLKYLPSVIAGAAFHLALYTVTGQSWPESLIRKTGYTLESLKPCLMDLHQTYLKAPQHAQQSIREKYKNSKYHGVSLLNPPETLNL
Summary of the method: as §1

[3] = target: T4, IDH3B Isocitrate dehydrogenase (Homo sapiens, UniProt O43837)
T4 construct: isoTOP-ABPP experiments performed in cell lysates (in vitro); endogenous in cells; host or cells: MDA-MB-231 soluble lysate
T4 sequence (O43837 35-385): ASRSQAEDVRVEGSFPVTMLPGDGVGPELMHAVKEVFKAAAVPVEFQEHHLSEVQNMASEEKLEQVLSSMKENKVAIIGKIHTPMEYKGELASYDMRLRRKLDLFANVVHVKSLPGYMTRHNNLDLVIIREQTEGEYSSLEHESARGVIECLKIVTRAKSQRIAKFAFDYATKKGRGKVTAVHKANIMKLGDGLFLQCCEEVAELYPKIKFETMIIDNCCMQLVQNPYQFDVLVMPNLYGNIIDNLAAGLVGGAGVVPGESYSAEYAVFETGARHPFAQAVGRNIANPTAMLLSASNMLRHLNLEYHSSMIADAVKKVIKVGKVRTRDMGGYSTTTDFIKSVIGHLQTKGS
Summary of the method: as §1

[4] = target: T5, CCDC173 Coiled-coil domain-containing protein 173 (Homo sapiens, UniProt Q0VFZ6); settings: 50 uM, in vitro
T5 construct: isoTOP-ABPP experiments performed in cell lysates (in vitro); endogenous in cells; host or cells: soluble proteome of human cancer cell lines (MDA-MB-231, Ramos, Jurkat)
T5 sequence (Q0VFZ6 whole entry, the tested form may be a part): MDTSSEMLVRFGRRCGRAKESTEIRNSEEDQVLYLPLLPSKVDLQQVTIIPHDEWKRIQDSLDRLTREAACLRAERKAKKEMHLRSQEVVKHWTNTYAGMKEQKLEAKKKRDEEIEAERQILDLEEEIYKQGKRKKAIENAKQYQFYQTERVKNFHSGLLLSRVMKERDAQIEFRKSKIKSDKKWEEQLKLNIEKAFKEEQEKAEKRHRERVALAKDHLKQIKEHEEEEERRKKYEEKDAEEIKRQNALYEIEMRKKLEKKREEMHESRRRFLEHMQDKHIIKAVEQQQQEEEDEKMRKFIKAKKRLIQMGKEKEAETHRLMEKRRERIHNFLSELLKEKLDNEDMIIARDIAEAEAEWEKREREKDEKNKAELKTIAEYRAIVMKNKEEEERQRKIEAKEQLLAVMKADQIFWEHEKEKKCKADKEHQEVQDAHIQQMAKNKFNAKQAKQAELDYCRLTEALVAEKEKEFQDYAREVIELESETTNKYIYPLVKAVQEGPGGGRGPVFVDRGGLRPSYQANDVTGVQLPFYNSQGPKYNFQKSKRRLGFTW
Summary of the method: as §1

T1 sequence (Q9GZV4 whole entry): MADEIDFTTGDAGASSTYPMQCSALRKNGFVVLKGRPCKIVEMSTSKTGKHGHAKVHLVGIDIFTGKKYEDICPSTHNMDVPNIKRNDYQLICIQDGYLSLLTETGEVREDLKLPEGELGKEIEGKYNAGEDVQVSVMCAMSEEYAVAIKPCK

For `O=C(CC12CC3CC(CC(C3)C1)C2)Oc1ccc([N+](=O)[O-])cc1[N+](=O)[O-]` [fragment 38, 2,4-Dinitrophenyl 2-(adamantan-1-yl)acetate], the “isoTOP-ABPP ratio (R) at liganded lysine Q9GZV4_K47” value ([1]; sol, 231) was 1.8.
`O=C(ON1C(=O)CCC1=O)c1cc(C(F)(F)F)cc(C(F)(F)F)c1` [fragment 46, 3,5-Bis(trifluoromethyl)benzoic acid NHS ester] was tested, and the “isoTOP-ABPP ratio, lysine Q9UKV3_K103” value [2] was 16.6.
In the case of `COc1cc(CCC(=O)Oc2ccc([N+](=O)[O-])cc2[N+](=O)[O-])cc(OC)c1OC` [fragment 33, 2,4-Dinitrophenyl 3-(3,4,5-trimethoxyphenyl)propanoate], the “isoTOP-ABPP reactivity ratio at lysine P20248_K54” value (CCNA2 Cyclin-A2; 231 sol) is reported as 5.4.
With `CC(C)(C)OC(=O)N=C(NC(=O)OC(C)(C)C)n1cccn1` [fragment 50, reference compound] the “isoTOP-ABPP ratio, lysine O43837_K207” value ([3]; 100 uM_231_sol_in vitro) was 3.1.
In the case of `N#Cc1ccc(C(=O)Oc2ccc([N+](=O)[O-])cc2[N+](=O)[O-])cc1` [fragment 44, 2,4-Dinitrophenyl 4-cyanobenzoate], the “isoTOP-ABPP ratio, lysine Q9UKV3_K103” value [2] is reported as 1.0.
With `O=C(Oc1ccc([N+](=O)[O-])cc1[N+](=O)[O-])c1ccc(-c2ccccc2)cc1` [fragment 37, 2,4-Dinitrophenyl [1,1′-biphenyl]-4-carboxylate] the “isoTOP-ABPP ratio (R) at liganded lysine P20248_K54” value (CCNA2 Cyclin-A2; sol, 231) was 0.5.
With `O=C(Oc1c(F)c(F)c(F)c(F)c1F)C(c1ccccc1)c1ccccc1` [fragment 20, Pentafluorophenyl 2,2-diphenylacetate] the “R value (DMSO/fragment) for probe 1 labeling” value (from here on “R value (DMSO/fragment)”) ([3]; O43837_K207, 50 uM, 231 sol, in vitro) was 6.5.
`O=C(Oc1ccc([N+](=O)[O-])cc1[N+](=O)[O-])c1ccc2ccccc2n1` [fragment 35, 2,4-Dinitrophenyl quinoline-2-carboxylate] was tested, and the “isoTOP-ABPP ratio (R) at liganded lysine Q0VFZ6_K312” value ([4]; sol, 231) was 14.4.
In the case of `O=C(Oc1c(F)c(F)c(F)c(F)c1F)c1cc(C(F)(F)F)cc(C(F)(F)F)c1` [fragment 21, Pentafluorophenyl 3,5-bis(trifluoromethyl)benzoate], the “R value (DMSO/fragment)” value ([4]; Q0VFZ6_K312, 231 sol) is reported as 20.0 and the “R value (DMSO/fragment)” value ([1]; Q9GZV4_K47, 231 sol) is reported as 5.0.

Reference: patent publication US20210255193A1, “LYSINE REACTIVE PROBES AND USES THEREOF” (The Scripps Research Institute, priority 2017, published 2021)
